Counter-ions that a name gives are not always drawn.
Test system: TNF-α production
Assay: Effect on TNF-α production in mice (in vivo), LPS-induced
Conditions: serum TNF-α 90 min after LPS 500 μg/kg i.p.; test compound orally 30 min before LPS; ratio relative to test compound non-administration group
Protocol: (§1) Since the TNF-α concentration in serum reaches a peak at 90 min after LPS administration, the TNF-α concentration in the serum at this point was measured using FACTOR TEST mTNF-α (manufactured by Genzyme) and the IL-10 concentration at the same point of time was also measured using Murine IL-10 ELISA Kit (manufactured by Endogen). […] The effect of the test compound on the TNF-α production and IL-10 production was calculated by the following formula as the ratio relative to the test compound non-administration group.

| SMILES | TNF-α production (%) |
| --- | --- |
| CC(=O)NC(C)c1ccc(CN2CCN(c3ccccc3)CC2)cc1 (centres unmarked) [Example 58, N-(1-(4-((4-Phenylpiperazin-1-yl)methyl)phenyl)ethyl)acetamide Dihydrochloride 1/4 Hydrate] | 19 |
| CC(=O)NCc1ccc(CN2CCN(c3nccs3)CC2)cc1 [Example 81, N-(4-((4-(Thiazol-2-yl)piperazin-1-yl)methyl)phenylmethyl)acetamide Hydrochloride 1/2 Hydrate] | 11 |

Test system: IL-10 production
Assay: Effect on IL-10 production in mice (in vivo), LPS-induced
Conditions: serum IL-10 90 min after LPS 500 μg/kg i.p.; test compound orally 30 min before LPS; ratio relative to test compound non-administration group
Protocol: as §1

| SMILES | IL-10 production (%) |
| --- | --- |
| CC(=O)NC(C)c1ccc(CN2CCN(c3ccccc3)CC2)cc1 (centres unmarked) [Example 58, N-(1-(4-((4-Phenylpiperazin-1-yl)methyl)phenyl)ethyl)acetamide Dihydrochloride 1/4 Hydrate] | 499 |
| CC(=O)NCc1ccc(CN2CCN(c3nccs3)CC2)cc1 [Example 81, N-(4-((4-(Thiazol-2-yl)piperazin-1-yl)methyl)phenylmethyl)acetamide Hydrochloride 1/2 Hydrate] | 1035 |

Test system: not given
Assay: not given
Conditions: not given

| SMILES | melting point |
| --- | --- |
| CC(=O)NC1(c2ccc(C(C)N3CCN(c4ccc(F)cc4)CC3)cc2)CC1 (centres unmarked) [Example 67, N-(1-(4-(1-(4-(4-Fluorophenyl)piperazin-1-yl)ethyl)phenyl)cyclopropyl)acetamide] | 149 to 150 °C |
| CC(=O)NC(C)c1ccc(CN2CCN(c3ncccn3)CC2)cc1 (centres unmarked) [Example 69, N-(1-(4-((4-(Pyrimidin-2-yl)piperazin-1-yl)methyl)phenyl)ethyl)acetamide] | 124 to 126 °C |
| CC(=O)NC1(c2ccc(C(C)N3CCN(c4ncccn4)CC3)cc2)CC1 (centres unmarked) [Example 70, N-(1-(4-(1-(4-(Pyrimidin-2-yl)piperazin-1-yl)ethyl)phenyl)cyclopropyl)acetamide] | 124 to 125 °C |
| CC(=O)NC1(c2ccc(CN3CCN(c4ncccn4)CC3)cc2)CC1 [Example 71, N-(1-(4-((4-(Pyrimidin-2-yl)piperazin-1-yl)methyl)phenyl)cyclopropyl)acetamide] | 145 to 146 °C |
| NCc1ccc(CN2CCN(c3ncccn3)CC2)cc1 [Example 74, 2-(4-(4-(Aminomethyl)phenylmethyl)-piperazin-1-yl)pyrimidine] | 70 to 72 °C |
| O=CNCc1ccc(CN2CCN(c3ncccn3)CC2)cc1 [Example 76, N-(4-((4-(Pyrimidin-2-yl)piperazin-1-yl)methyl)phenylmethyl)formamide] | 97 to 98 °C |
| CC(=O)NCc1ccc(CN2CCN(c3nc(F)cc(F)n3)CC2)cc1 [Example 78, N-(4-((4-(4,6-Difluoropyrimidin-2-yl)piperazin-1-yl)methyl)phenylmethyl)acetamide] | 128 to 129 °C |
| CC(=O)NCc1ccc(CN2CCN(c3cc(F)nc(F)n3)CC2)cc1 [Example 79, N-(4-((4-(2,6-Difluoropyrimidin-4-yl)piperazin-1-yl)methyl)phenylmethyl)acetamide] | 127 to 128 °C |
| CC(=O)NCc1ccc(CN2CCN(c3nc(Cl)cc(Cl)n3)CC2)cc1 [Example 80, N-(4-((4-(4,6-Dichloropyrimidin-2-yl)piperazin-1-yl)methyl)phenylmethyl)acetamide] | 139 to 140 °C |
| CC(=O)NCc1ccc(CN2CCN(c3ccncc3)CC2)cc1 [Example 84, N-(4-((4-(Pyridin-4-yl)piperazin-1-yl)methyl)phenylmethyl)acetamide] | 164 to 166 °C |
| CC(=O)NCc1ccc(CN2CCN(c3ccc(Cl)cn3)CC2)cc1 [Example 86, N-(4-((4-(5-Chloropyridin-2-yl)piperazin-1-yl)methyl)phenylmethyl)acetamide] | 155 to 156 °C |
| CC(=O)NCc1ccc(CN2CCN(c3cnccn3)CC2)cc1 [Example 87, N-(4-((4-(Pyrazin-2-yl)piperazin-1-yl)methyl)phenylmethyl)acetamide] | 118 to 119 °C |
| CC(=O)NCc1ccc(CN2CCN(c3ncc([N+](=O)[O-])s3)CC2)cc1 [Example 88, N-(4-((4-(5-Nitrothiazol-2-yl)piperazin-1-yl)methyl)phenylmethyl)acetamide] | 151 to 152 °C |
| CC(=O)NCc1ccc(CN2CCN(c3cc(Cl)nc(Cl)n3)CC2)cc1 [Example 89, N-(4-((4-(2,6-Dichloropyrimidin-4-yl)piperazin-1-yl)methyl)phenylmethyl)acetamide] | 165 to 166 °C |
| CC(=O)NCc1ccc(CN2CCN(c3nc(C)cc(C)n3)CC2)cc1 [Example 93, N-(4-((4-(4,6-Dimethylpyrimidin-2-yl)piperazin-1-yl)methyl)phenylmethyl)acetamide] | 127 to 128 °C |
| CC(=O)NC(C)(C)c1ccc(CN2CCN(c3nccs3)CC2)cc1 [Example 94, N-(1-Methyl-1-(4-((4-(thiazol-2-yl)piperazin-1-yl)methyl)phenyl)ethyl)acetamide] | 118 to 120 °C |
| CC(=O)NC(C)(C)c1ccc(CN2CCN(c3ncccn3)CC2)cc1 [Example 95, N-(1-Methyl-1-(4-((4-(pyrimidin-2-yl)piperazin-1-yl)methyl)phenyl)ethyl)acetamide] | 137 to 138 °C |
| COc1cc(OC)nc(N2CCN(Cc3ccc(C(C)(C)NC(C)=O)cc3)CC2)n1 [Example 96, N-(1-(4-((4-(4,6-Dimethoxypyrimidin-2-yl)piperazin-1-yl)methyl)phenyl)-1-methylethyl)acetamide] | 199 to 202 °C |
| CC(=O)NCc1ccc(CN2CCN(c3ccnc(Cl)n3)CC2)cc1 [Example 97, N-(4-((4-(2-Chloropyrimidin-4-yl)piperazin-1-yl)methyl)phenylmethyl)acetamide] | 132 to 133 °C |

| SMILES | melting point |
| --- | --- |
| CC(=O)NCc1ccc(CN2CCN(c3nccc(Cl)n3)CC2)cc1 [Example 97, N-(4-((4-(4-chloropyrimidin-2-yl)piperazin-1-yl)methyl)phenylmethyl)acetamide] | 122 to 124 °C |
| CC(=O)NCc1ccc(CN2CCN(c3nccc(N(C)C)n3)CC2)cc1 [Example 99, N-(4-((4-(4-(N,N-Dimethylamino)pyrimidin-2-yl)piperazin-1-yl)methyl)phenylmethyl)acetamide] | 152 to 155 °C |
| CC(=O)NC1(c2ccc(CN3CCN(c4nccs4)CC3)cc2)CC1 [Example 100, N-(1-(4-((4-(Thiazol-2-yl)piperazin-1-yl)methyl)phenyl)cyclopropyl)acetamide] | 184 to 185 °C |
| CC(=O)NC(C)c1ccc(CN2CCN(c3nccs3)CC2)cc1 (centres unmarked) [Example 101, N-(1-(4-((4-(Thiazol-2-yl)piperazin-1-yl)methyl)phenyl)ethyl)acetamide] | 136 to 137 °C |
| CC(=O)NC(C)c1ccc(CN2CCN(c3cccc(F)n3)CC2)cc1 (centres unmarked) [Example 102, N-(1-(4-((4-(6-Fluoropyridin-2-yl)piperazin-1-yl)methyl)phenyl)ethyl)acetamide] | 109 to 111 °C |
| CC(=O)NC(C)c1ccc(CN2CCN(c3ccccn3)CC2)cc1 (centres unmarked) [Example 104, N-(1-(4-((4-(Pyridin-2-yl)piperazin-1-yl)methyl)phenyl)ethyl)acetamide] | 120 to 121 °C |
| CC(=O)NC(C)(C)c1ccc(CN2CCN(c3ccccn3)CC2)cc1 [Example 105, N-(1-Methyl-1-(4-((4-(pyridin-2-yl)piperazin-1-yl)methyl)phenyl)ethyl)acetamide] | 129 to 130 °C |
| COc1ccnc(N2CCN(Cc3ccc(C(C)(C)NC(C)=O)cc3)CC2)n1 [Example 106, N-(1-(4-((4-(4-Methoxypyrimidin-2-yl)piperazin-1-yl)methyl)phenyl)-1-methylethyl)acetamide] | 160 to 162 °C |
| COc1ccnc(N2CCN(Cc3ccc(C(C)NC(C)=O)cc3)CC2)n1 (centres unmarked) [Example 107, N-(1-(4-((4-(4-Methoxypyrimidin-2-yl)piperazin-1-yl)methyl)phenyl)ethyl)acetamide] | 113 to 115 °C |
| CCOc1cc(OCC)nc(N2CCN(Cc3ccc(CNC(C)=O)cc3)CC2)n1 [Example 108, N-(4-((4-(4,6-Diethoxypyrimidin-2-yl)piperazin-1-yl)methyl)phenylmethyl)acetamide] | 119 to 120 °C |
| CC(=O)NCc1ccc(CN2CCN(c3nc(N(C)C)cc(N(C)C)n3)CC2)cc1 [Example 109, N-(4-((4-(4,6-bis(Dimethylamino)-pyrimidin-2-yl)piperazin-1-yl)methyl)phenylmethyl)acetamide] | 189 to 190 °C (dec.) |
| COc1cc(N(C)C)nc(N2CCN(Cc3ccc(CNC(C)=O)cc3)CC2)n1 [Example 110, N-(4-((4-(4-Dimethylamino-6-methoxypyrimidin-2-yl)piperazin-1-yl)methyl)phenylmethyl)acetamide] | 115 to 118 °C |
| CC(=O)NCc1ccc(CN2CCN(c3ncc(Br)s3)CC2)cc1 [Example 111, N-(4-((4-(5-Bromothiazol-2-yl)piperazin-1-yl)methyl)phenylmethyl)acetamide] | 160 to 163 °C |
| CC(=O)NCc1ccc(CN2CCN(c3ncc(Cl)s3)CC2)cc1 [Example 112, N-(4-((4-(5-Chlorothiazol-2-yl)piperazin-1-yl)methyl)phenylmethyl)acetamide] | 142 to 145 °C (dec.) |
| CC(=O)NC1(c2ccc(CN3CCN(c4cccc(F)n4)CC3)cc2)CC1 [Example 117, N-(1-(4-((4-(6-Fluoropyridin-2-yl)piperazin-1-yl)methyl)phenyl)cyclopropyl)acetamide] | 135 to 136 °C |
| CC(=O)NC1(c2ccc(CN3CCN(c4ccccn4)CC3)cc2)CC1 [Example 118, N-(1-(4-((4-(Pyridin-2-yl)piperazin-1-yl)methyl)phenyl)cyclopropyl)acetamide] | 145 to 147 °C |
| CC(=O)N[C@@H](C)c1ccc(CN2CCN(c3ccc(F)cc3)CC2)cc1 [Example 121, (S)-N-(1-(4-((4-(4-Fluorophenyl)piperazin-1-yl)methyl)phenyl)ethyl)acetamide] | 114 to 115 °C |
| CC(=O)N[C@H](C)c1ccc(CN2CCN(c3ccc(F)cc3)CC2)cc1 [Example 122, (R)-N-(1-(4-((4-(4-fluorophenyl)piperazin-1-yl)methyl)phenyl)ethyl)acetamide] | 114 to 115 °C |
